Entries after “also recorded” stand apart in the source; their conditions may differ. Like-named read-outs stand apart in the source and are kept apart here.
Key:
TAU phosphorylation = assay: phospho-tau and Tau ELISA assay in tau-transfected HT4 cells; format: cell-based; conditions: tau-transfected mouse hippocampal-derived HT4 cell line
Description: Docetaxel is a clinically well established anti-mitotic chemotherapy medication used mainly for the treatment of breast, ovarian and non-small cell lung cancer which had shown close proximity with Tau motive. Neurofibrillary tangles, a hallmark of AD, are intracellular abnormally aggregates of hyperphosphorylated protein TAU [19]. In that sense, Tau pathology was evaluated on tau-transfected in a mouse hippocampal-derived HT4 cell line using a phospho-tau and Tau ELISA assay (Sigma-aldrich, St Louis, Mo.). The level of TAU phosphorylation is used as an indicator of the degree of TAU pathology.

[1] = molecular target: T1, Acetylcholinesterase (AChE) (Electrophorus electricus, UniProt O42275); format: biochemical
T1 construct: purchased Invitrogen, Carlsbad, Calif
Description: (§1) Current therapy for AD is based on improving the brain synaptic availability of acetylcholine by using acetylcholinesterase inhibitors (AChEls). Therefore, potential drug effect on neuronal dysfunction was studied with an in vitro Acetylcholinesterase (AChE) assay using Amplex Red Acetylcholine/Assay Kit (Invitrogen, Carlsbad, Calif.). The efficacy of ridogrel on memory was obtained running dose-response (10-100 μM). 10 μM Eserine, an anticholinesterase drug, was used as positive control.
as §1, with “diminazene aceturate” for “ridogrel”, “(1-500” for “(10-100”

[2] = system: cells stably expressing wild-type presenilin-1 an Aβ precursor protein; assay: Aβ1-40 and Aβ1-42 ELISA on extracellular media of treated cells; format: cell-based
Source text: The putative neurological effects of this drug have been confirmed experimentally using sensitive Aβ1-40 and Aβ1-42 ELISA kits (Wako, Osaka, Japan) on the extracellular media of treated and untreated cells stably expressing wild-type presenilin-1 an Aβ precursor protein. […] Aggregation and fibril formation of Aβ peptides are central events in the pathogenesis of Alzheimer's disease. Previous studies have established the ratio of Aβ1-40 to Aβ1-42 as an important factor in determining the fibrillogenesis, and toxicity of amyloid plaques.

[3] = extracellular media, treated vs untreated cells

T1 sequence (O42275 24-633): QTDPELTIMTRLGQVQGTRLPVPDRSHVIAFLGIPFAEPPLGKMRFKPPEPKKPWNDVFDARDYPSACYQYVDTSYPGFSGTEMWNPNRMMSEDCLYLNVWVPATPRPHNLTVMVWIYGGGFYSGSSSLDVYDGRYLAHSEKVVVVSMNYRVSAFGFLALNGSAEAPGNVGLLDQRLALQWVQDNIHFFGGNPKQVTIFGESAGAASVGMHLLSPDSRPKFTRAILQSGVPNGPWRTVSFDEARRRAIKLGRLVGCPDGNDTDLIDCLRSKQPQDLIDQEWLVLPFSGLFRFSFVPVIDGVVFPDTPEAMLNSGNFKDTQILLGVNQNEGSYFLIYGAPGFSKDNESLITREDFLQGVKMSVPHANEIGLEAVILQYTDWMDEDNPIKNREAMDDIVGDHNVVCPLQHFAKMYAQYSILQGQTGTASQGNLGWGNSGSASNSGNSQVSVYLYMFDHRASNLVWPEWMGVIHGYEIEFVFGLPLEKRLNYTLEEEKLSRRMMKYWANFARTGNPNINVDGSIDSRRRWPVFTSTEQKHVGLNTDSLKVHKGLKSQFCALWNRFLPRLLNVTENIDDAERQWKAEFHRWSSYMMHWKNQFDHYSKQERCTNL

CC(=O)O[C@@]12CO[C@@H]1C[C@H](O)[C@@]1(C)C(=O)[C@H](O)C3=C(C)[C@@H](OC(=O)[C@H](O)[C@@H](NC(=O)OC(C)(C)C)c4ccccc4)C[C@@](O)([C@@H](OC(=O)c4ccccc4)[C@H]21)C3(C)C [Docetaxel]
TAU phosphorylation (pTAU/TAU ratio) (TAU phosphorylation): significantly reduces
TAU phosphorylation (pTAU/TAU ratio) (TAU phosphorylation; listed as docetaxel): reduces TAU phosphorylation

O=C(O)CCCCO/N=C(/c1cccnc1)c1cccc(C(F)(F)F)c1 [Ridogrel]
inhibition of AChE ([1]; dose-response 10-100 μM, inhibition with dose 100 to 25 μM): dose-dependent inhibition

Cc1c(OCC(F)(F)F)ccnc1C[S+]([O-])c1nc2ccccc2[nH]1 (stereo not shown) [Lansoprazole]
Aβ1-40 peptide production [2, 3]: significantly increases
Aβ1-42 peptide production [2, 3]: significantly increase
Aβ1-40/Aβ1-42 ratio ([2]; treated cells): significant reduction; also recorded: reduces

N=C(N)c1ccc(/N=N/Nc2ccc(C(=N)N)cc2)cc1 [Diminazene Aceturate, Diminazene aceturate]
inhibition of AChE ([1]; dose-response 1-500 μM, inhibition with dose 500 to 10 μM): dose-dependent inhibition

Reference: patent publication US20130116215A1, “COMBINATION THERAPIES FOR TREATING NEUROLOGICAL DISORDERS” (priority 2011, published 2013)
